Assays:
[1] = tested on: HIV-1 resistant mutant K103N/Y181C in C8166 LTRluc cells; assay: C8166 HIV-1 luciferase assay (EC50), resistant mutant; assay type: cell-based; conditions: Human immunodeficiency virus 1, C8166, read-out: EC50 K103N/Y181C
Excerpt: (§1) C8166 HIV-1 Luciferase Assay (EC50)
(§2) Plasmid: pGL3 Basic LTR/TAR #12
(§3) C8166 cells are a human T-lymphotrophic virus type 1 immortalized but nonexpressing line of cord blood lymphocytes and are highly permissive to HIV-1 infection. The reporter cells were made by electroporating C8166 cells with pGL3 Basic LTR/TAR and then selecting positive clones with blasticidine. The clone C8166-LTRluc #A8-F5-G7 was selected by 3 consecutive rounds of limiting dilution under blasticidine selection.
(§4) Media: Complete media consisting of: RPMI 1640+10% FBS+10^−5 M
(§5) β-mercaptoethanol+10 μg/ml gentamycin. Cultures are maintained in complete media with 5 μg/ml blasticidine, however, selection is removed for the assay.
(§6) Luciferase Assay Protocol
(§7) Eleven serial dilutions of 2.5× are made at 8× desired final concentration in a 1 ml deep well titer plate (96 wells). The 12th well contains complete media with no inhibitor and serves as the positive control. All samples contain the same concentration of DMSO (≦0.1% DMSO). A 25 μl aliquot of inhibitor is added, to triplicate wells, of a 96 well tissue culture treated clear view black microtiter plate (Corning Costar catalogue # 3904). The last row is reserved for uninfected C8166 LTRluc cells to serve as the background blank control and the first row is media alone.
Count C8166 LTRluc cells and place in a minimal volume of complete RPMI 1640 in a tissue culture flask (ex. 30×10^6 cells in 10 ml media/25 cm^2 flask). […] Incubate cells for 1.5 hours at 37° C. on a rotating rack in a 5% CO2 incubator. Resuspend cells in complete RPMI to give a final concentration of 25,000-cells/175 μl. Add 175 μl of cell mix to wells of 96 well microtiter plate containing 25 μl 8× inhibitors. Add 25,000 uninfected C8166-LTRluc cells/well in 200 μl complete RPMI to last row for background control. Incubate cells at 37° C. in 5% CO2 incubator for 3 days.
(§8) Add 50 μl Steady Glo (luciferase substrate T1/2=5 hours Promega catalogue # E2520) to each well of the 96 well plate. Determine the relative light units (RLU) of luciferase using the BMG LUMlstar Galaxy luminometer. Plates are read from the bottom for 2 seconds per well with a gain of 240.
(§9) The level of inhibition (% inhibition) of each well containing inhibitor was calculated with the following equation: […]
The calculated % inhibition values were then used to determine EC50, slope factor (n) and maximum inhibition (Imax) by the non-linear regression routine NLIN procedure of SAS using the following equation:
(§10) Table legend: A=>100; B=100-50; C=<50; NT=not tested

[2] = target: T1, HIV-1 RT enzyme (wild type) (Human immunodeficiency virus type 1 group M subtype B, UniProt P04585); assay: Reverse transcriptase (RT) enzymatic assay (IC50), PicoGreen fluorescence, wild type; assay type: biochemical; conditions: RT enzymatic assay, wild type; read-out: IC50 WT
T1 construct: The reverse transcriptase (RT) enzyme assay has been adapted to a 96-well microtiter plate format
Protocol: (§11) Reverse Transcriptase (RT) Assays Enzymatic Assay (IC50)
The enzymatic assay employed is described as follows: The reverse transcriptase (RT) enzyme assay has been adapted to a 96-well microtiter plate format and uses PicoGreen™ as a fluorescent intercalator. More explicitly, the HIV-1 RT enzyme was thawed and appropriately diluted into Tris/HCl 50 mM pH 7.8 containing NaCl 60 mM, MgCl2∘6H2O 2 mM, DTT 6 mM, GSH 2 mM and 0.02% w/v Chaps to give ≈10 nM enzyme. […] The plate was pre-incubated for 15 minutes at room temperature before proceeding to the next step. […] Then the enzymatic reaction was initiated by addition of 20 μL of substrate solution. […] After addition of the substrate cocktail, the plate was covered with a plastic seal and incubated for 50 minutes at 37° C. in a dry incubator. The reaction was then quenched by addition of 5 μL of EDTA 0.5 M. The plate was shaken for 30 seconds at medium speed and incubated for 5 minutes at room temperature. Then 160 μL of PicoGreen™ 1:400 dilution from commercial stock (diluted in Tris 20 mM pH 7.5 with EDTA 1 mM) was added and the plate was shaken for 30 seconds and incubated for 10 minutes at room temperature. […] Each row contained at its extremities a blank and a control well.
as §10

[3] = target: T2, HIV-1 RT resistant mutant K103N/Y181C (Human immunodeficiency virus type 1 group M subtype B, UniProt P04585, K690N/Y768C); assay: Reverse transcriptase (RT) enzymatic assay (IC50), PicoGreen fluorescence, resistant mutant; assay type: biochemical
T2 construct: The reverse transcriptase (RT) enzyme assay has been adapted to a 96-well microtiter plate format
Protocol: as §11
The enzymatic assay employed is described as follows: The reverse transcriptase (RT) enzyme assay has been adapted to a 96-well microtiter plate format and uses PicoGreen™ as a fluorescent intercalator. More explicitly, the HIV-1 RT enzyme was thawed and appropriately diluted into Tris/HCl 50 mM pH 7.8 containing NaCl 60 mM, MgCl2∘6H2O 2 mM, DTT 6 mM, GSH 2 mM and 0.02% w/v Chaps to give ≈10 nM enzyme. To 10 μL of this enzyme solution was added 10 μL of inhibitor solution (40 μM to […] inhibitor in the same assay buffer as above containing 4% v/v DMSO). The plate was pre-incubated for 15 minutes at room temperature before proceeding to the next step. In this pre-incubation step, the highest and lowest inhibitor concentrations were 20 μM and 1.016 nM respectively and the concentration of DMSO was 2% v/v. Then the enzymatic reaction was initiated by addition of 20 μL of substrate solution. The final reaction mixture contained Tris/HCl 50 mM pH 7.8, NaCl 60 mM, MgCl2∘6H2O 2 mM, DTT 6 mM, GSH 2 mM, CHAPS 0.02% w/v, DMSO 1% v/v, poly rC 45 nM, dG15 4.5 nM, dGTP 3.6 μM, and ≈2.5 nM enzyme. In this incubation step, the highest and lowest inhibitor concentrations were 10 μM and 0.508 nM respectively. After addition of the substrate cocktail, the plate was covered with a plastic seal and incubated for 50 minutes at 37° C. in a dry incubator. The reaction was then quenched by addition of 5 μL of EDTA 0.5 M. The plate was shaken for 30 seconds at medium speed and incubated for 5 minutes at room temperature. Then 160 μL of PicoGreen™ 1:400 dilution from commercial stock (diluted in Tris 20 mM pH 7.5 with EDTA 1 mM) was added and the plate was shaken for 30 seconds and incubated for 10 minutes at room temperature. The plate was then analyzed using a POLARstar Galaxy fluorimeter (BMG Labtechnologies) with λex and λem of 485 nm and 520 nm respectively. […] Each row contained at its extremities a blank and a control well.
as §10

[4] = tested on: HIV-1 (wild type) in C8166 LTRluc cells; assay: C8166 HIV-1 luciferase assay (EC50), wild type; assay type: cell-based; conditions: Human immunodeficiency virus 1, C8166 HIV-1 luciferase assay (no *)
Excerpt: as §1, §2
Plasmid is the pGL3 Basic Vector (a promoterless luciferase expression vector from Promega catalogue #E1751) with the addition of HIV-1 H×B2 LTR sequence from nucleotide −138 to +80 (Sca1-HindIII) upstream of the luciferase gene and the gene for blasticidine resistance cloned in.
as §3, §4, §5, §6
as §7, with “Serial dilutions of HIV-1 inhibitors compounds are prepared in complete media from 10 mM DMSO stock solutions. Eleven” for “Eleven”
Count C8166 LTRluc cells and place in a minimal volume of complete RPMI 1640 in a tissue culture flask (ex. 30×10^6 cells in 10 ml media/25 cm^2 flask). Infect cells with HIV-1 at a moi of 0.005. Incubate cells for 1.5 hours at 37° C. on a rotating rack in a 5% CO2 incubator. Resuspend cells in complete RPMI to give a final concentration of 25,000-cells/175 μl. Add 175 μl of cell mix to wells of 96 well microtiter plate containing 25 μl 8× inhibitors. Add 25,000 uninfected C8166-LTRluc cells/well in 200 μl complete RPMI to last row for background control. Incubate cells at 37° C. in 5% CO2 incubator for 3 days.
as §8, §9
The calculated % inhibition values were then used to determine EC50, slope factor (n) and maximum inhibition (Imax) by the non-linear regression routine NLIN procedure of SAS using the following equation: […]
The results are listed in Table 9 as IC50(nM) and EC50 (nM).
as §10

| SMILES | EC50 [1] [nM] | IC50 [2] [nM] | IC50 [3] [nM] | EC50 [4] [nM] |
| --- | --- | --- | --- | --- |
| Cc1ccc(Cl)c(-n2nnnc2SCC(=O)Nc2ccccc2[N+](=O)[O-])c1 [Entry 145] | > 100 | < 50 | > 100 | < 50 |
| Cc1cc(C(F)(F)F)cc(-n2nnnc2SCC(=O)Nc2ccc(S(N)(=O)=O)cc2Cl)c1Cl [Entry 703] | < 50 | < 50 | 50 to 100 | < 50 |
| Cc1ccc(-n2nnnc2SCC(=O)Nc2ccc(C(N)=O)cc2[N+](=O)[O-])c(Cl)c1 [Entry 508] | < 50 | < 50 | 50 to 100 | < 50 |
| CC(C)S(=O)(=O)c1ccc(NC(=O)CSc2nnnn2-c2ccc(C(C)(C)C)cc2Cl)c(Cl)c1 [Entry 607] | 50 to 100 | < 50 | > 100 | < 50 |
| Cc1ccc(-n2nnnc2SCC(=O)Nc2ccc(C(=O)O)cc2Cl)c(Cl)c1 [Entry 503] | > 100 | < 50 | > 100 | < 50 |
| CC(C)(C)OC(=O)N1CCN(c2ccc(NC(=O)CSc3nnnn3-c3ccc(C(C)(C)C)cc3Cl)c(Cl)c2)CC1 [Entry 614] | > 100 | < 50 | > 100 | < 50 |
| O=C(CSc1nnnn1-c1ccc(I)cc1Cl)Nc1ccccc1Cl [Entry 706] | > 100 | < 50 | > 100 | < 50 |
| CC(C)(C)c1ccc(-n2nnnc2SCC(=O)Nc2ccc(N3CCCC3)cc2Cl)c(Cl)c1 [Entry 612] | > 100 | < 50 | > 100 | 50 to 100 |
| Cc1nnc(SCC(=O)Nc2ccc(S(C)(=O)=O)cc2Cl)n1-c1ccc(C(C)(C)C)cc1Cl [Entry 431] | < 50 | < 50 | 50 to 100 | < 50 |
| Cc1ccc(-n2nnnc2SCC(=O)Nc2ccc(C(=O)O)cc2[N+](=O)[O-])c(Cl)c1 [Entry 507] | > 100 | < 50 | > 100 | < 50 |
| Cc1ccc(NC(=O)CSc2nnnn2-c2ccc(C(C)(C)C)cc2Cl)c(Cl)n1 [Entry 802] | 50 to 100 | < 50 | > 100 | < 50 |
| Cc1ccc(-n2nnnc2SCC(=O)Nc2ccc(C(=O)O)cc2Br)c(Cl)c1 [Entry 505] | > 100 | < 50 | > 100 | < 50 |
| CC(C)(C)c1ccc(-n2nnnc2SCC(=O)Nc2ccc(N3CCCCC3)cc2Cl)c(Cl)c1 [Entry 613] | > 100 | < 50 | > 100 | < 50 |
| CCc1ccc(-n2nnnc2SCC(=O)Nc2ccccc2Cl)c(Cl)c1 [Entry 707] | > 100 | < 50 | > 100 | < 50 |
| CC(C)=CCc1ccc(-n2nnnc2SCC(=O)Nc2ccccc2Cl)c(Cl)c1 [Entry 709] | > 100 | < 50 | > 100 | > 100 |
| CC(C)(C)c1ccc(-n2nnnc2SCC(=O)Nc2ccc(S(N)(=O)=O)cc2Cl)c(Cl)c1 [Entry 604] | < 50 | < 50 | < 50 | < 50 |
| CN1CCN(c2ccc(NC(=O)CSc3nnnn3-c3ccc(C(C)(C)C)cc3Cl)c(Cl)c2)CC1 [Entry 610] | > 100 | < 50 | > 100 | < 50 |
| Cc1ccc(-c2ccccc2SCC(=O)Nc2ccccc2[N+](=O)[O-])c(Cl)c1 [Entry 417] | > 100 | < 50 | > 100 | < 50 |
| Cc1cc(C)c(-n2nnnc2SCC(=O)Nc2ccccc2[N+](=O)[O-])c(Br)c1 [Entry 147] | 50 to 100 | < 50 | > 100 | < 50 |
| C=CCc1ccc(-n2nnnc2SCC(=O)Nc2ccccc2Cl)c(Cl)c1 [Entry 708] | > 100 | < 50 | > 100 | < 50 |
| CC(C)(C)c1ccc(-n2nnnc2SCC(=O)Nc2ccc(N3CCOCC3)cc2Cl)c(Cl)c1 [Entry 611] | > 100 | < 50 | > 100 | < 50 |
| Cc1ccc(-n2c(C)nnc2SCC(=O)Nc2ccccc2[N+](=O)[O-])c(Cl)c1 [Entry 427] | > 100 |  | > 100 | < 50 |
